One may read the IC50 as the midpoint of a concentration-inhibition curve. By EC50 is commonly meant the midpoint of the concentration-response curve. A lower EC50 goes with higher potency in that assay.

In assay [1] the test system is wild type LM2 and CRISPR edited LM2. Kind of assay: Cell potency in CRISPR edited (PAICS knock-out) LM2 versus wild type LM2. The conditions noted are these: CRISPR edited LM2 vs wild type LM2. The format is cell-based, human. On the procedure:
Cas9 nuclease-mediated gene editing (Sander and Joung, 2014) was performed using a CRISPR RNA guide sequence ([…], PAM: AGG) targeting exon 3 in the human PAICS gene (accession number: NM_006452).
Stable cell clones were isolated and gene disruption confirmed by DNA sequencing and the absence of PAICS cellular protein expression confirmed by Western blotting.
A small set of compounds were tested against wild type LM2 and CRISPR edited LM2 to see to what extent the cellular potency was driven by PAICS mediated effects.

The target of a further assay is T1, WT full length PAICS (Homo sapiens, UniProt P22234).
T1 construct: 5 μl WT full length PAICS (final assay concentration, fac, 2.5 nM) in basic buffer
T1 sequence (P22234 1-425): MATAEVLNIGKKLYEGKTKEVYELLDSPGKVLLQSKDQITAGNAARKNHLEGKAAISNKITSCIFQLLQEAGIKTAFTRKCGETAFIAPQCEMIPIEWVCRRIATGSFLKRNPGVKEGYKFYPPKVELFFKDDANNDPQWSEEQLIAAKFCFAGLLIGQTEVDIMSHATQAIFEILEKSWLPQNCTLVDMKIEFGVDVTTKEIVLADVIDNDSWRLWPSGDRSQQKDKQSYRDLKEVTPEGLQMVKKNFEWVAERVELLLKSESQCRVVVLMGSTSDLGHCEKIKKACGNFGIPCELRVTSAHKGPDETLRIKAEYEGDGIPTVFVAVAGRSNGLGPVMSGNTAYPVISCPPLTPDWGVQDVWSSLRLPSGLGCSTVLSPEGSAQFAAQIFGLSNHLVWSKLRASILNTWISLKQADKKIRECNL
Nature of the assay: Biochemical assay to measure PAICS activity (Transcreener ADP2 FI, SAICAR synthetase reaction). As to conditions: PAICS 2.5 nM, 30 mins pre-incubation, ADP detection by fluorescence intensity. A digest of the protocol: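 Enzyme (2.5 nM) pre-incubated 30 min RT with compound (top 1 mM or 30 μM, half-log 10-point, duplicate) in 50 mM Tris-HCl pH8, 0.5 mM EDTA; CAIR (10 μM, ~5 μM after 1 h AIR/CAIR equilibration with MgCl2/KHCO3) then ATP/aspartate (30 μM/180 μM) for 30 min RT. ADP read by Transcreener fluorescence intensity (590/617 nm).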

Assay [2] has as its system LM2 and MDA-MB-231 breast cancer cell lines. Nature of the assay: PAICS 2D cell proliferation assay. The format is cell-based. The conditions noted are these: Homo sapiens; 72 hours incubation; cell line (LM2 or MDA-MB-231) not given. A digest of the protocol: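 Cells seeded at 1000/well, dosed after 24 h with a 10-point ½-log series (top 100 μM, 1% DMSO final), then incubated 72 h at 37 °C. Dead cells measured by CellTox Green DNA staining and viability by CellTiter-Glo ATP luminescence, both expressed as % of controls (mean±SEM, duplicate curves).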

As to `CN1CCN(c2ccc(-c3ccc(Cl)c(NC(=O)c4coc(N)n4)c3)cn2)CC1` [Example 37, 2-Amino-N-{2-chloro-5-[6-(4-methylpiperazin-1-yl)pyridin-3-yl]phenyl}-1,3-oxazole-4-carboxamide], the “Potency shift: CRISPR Cell EC50/WT Cell EC50” value (shortened to “Potency shift”) in assay [1] is greater than 10. Further, the half-inhibitory concentration (IC50) on WT full length PAICS is greater than 100 nM. The compound further came in with an EC50 in assay [2] of 100 to 250 nM.

`CCNCCCn1cc(-c2ccc(Cl)c(NC(=O)c3coc(N)n3)c2)cn1` [Example 47, 2-Amino-N-(2-chloro-5-(1-(3-(ethylamino)propyl)-1H-pyrazol-4-yl)phenyl)oxazole-4-carboxamide]: in assay [1], the “Potency shift” value was greater than 80. Moreover, the IC50 against WT full length PAICS was 10 to 25 nM. In assay [2], the EC50 is less than 100 nM.

Regarding `CN(C)CCCOc1ncc(-c2ccc(Cl)c(NC(=O)c3coc(N)n3)c2)s1` [Example 86, 2-Amino-N-(2-chloro-5-{2-[3-(dimethylamino)propoxy]-1,3-thiazol-5-yl}phenyl)-1,3-oxazole-4-carboxamide], in assay [1], the “Potency shift” value is greater than 30. The compound also yielded an IC50 against WT full length PAICS of less than 10 nM. In assay [2], this compound showed an EC50 of less than 100 nM.

`CNC1CCN(Cc2ncc(-c3ccc(Cl)c(NC(=O)c4coc(N)n4)c3)s2)CC1` [Example 91, 2-Amino-N-[2-chloro-5-(2-{[4-(methylamino)piperidin-1-yl]methyl}-1,3-thiazol-5-yl)phenyl]-1,3-oxazole-4-carboxamide] registered a half-maximal inhibitory concentration (IC50) against WT full length PAICS of less than 10 nM. The compound also yielded an EC50 in assay [2] of less than 100 nM.

As for `CSc1ccc(-c2ccc(OCCCN(C)C)nc2)cc1NC(=O)c1coc(N)n1` [Example 92, 2-Amino-N-[5-{6-[3-(dimethylamino)propoxy]pyridin-3-yl}-2-(methylsulfanyl)phenyl]-1,3-oxazole-4-carboxamide], on WT full length PAICS, the IC50 is 25 to 100 nM. The same compound registered an EC50 in assay [2] of 250 to 500 nM.

In turn, `CN(C)CCCOc1ccc(-c2ccc(Cl)c(NC(=O)c3coc(N)n3)c2)nc1` [Example 93, 2-Amino-N-(2-chloro-5-{5-[3-(dimethylamino)propoxy]pyridin-2-yl}phenyl)-1,3-oxazole-4-carboxamide] displayed a half-inhibitory concentration (IC50) against WT full length PAICS of 25 to 100 nM. This compound showed an EC50 in assay [2] of 250 to 500 nM.

Compound `CNCC1CCN(Cc2ncc(-c3ccc(Cl)c(NC(=O)c4coc(N)n4)c3)s2)CC1` [Example 94, 2-Amino-N-{2-chloro-5-[2-({4-[(methylamino)methyl]piperidin-1-yl}methyl)-1,3-thiazol-5-yl]phenyl}-1,3-oxazole-4-carboxamide] showed a half-maximal inhibitory concentration (IC50) against WT full length PAICS of 10 to 25 nM. The compound further returned an EC50 in assay [2] of less than 100 nM.

`CNC1CCCN(Cc2ncc(-c3ccc(Cl)c(NC(=O)c4coc(N)n4)c3)s2)C1` (stereo not shown) [Example 95, 2-Amino-N-[2-chloro-5-(2-{[3-(methylamino)piperidin-1-yl]methyl}-1,3-thiazol-5-yl)phenyl]-1,3-oxazole-4-carboxamide]: at WT full length PAICS, the IC50 is less than 10 nM. Moreover, the EC50 in assay [2] was 100 to 250 nM.

These data come from patent US10961234B2, “Oxazole derivatives for use in the treatment of cancer” (LIFEARC, priority 2016, dated 2021).
